Values quoted from earlier work as cited in patent US20050148589A1, “Compositions of a cyclooxygenase-2 selective inhibitor and a neurotrophic factor-modulating agent for the treatment of central nervous system mediated disorders” (Pharmacia & Upjohn Company LLC, priority 2003, published 2005).

Key:
[1] = tested on: brain damage due to neuroexcitotoxins; details: in vivo
[2] = tested on: animal models of cognitive decline, aging, neuroprotection, and spinal cord injury; details: pre-clinical studies
[3] = tested on: mRNA levels of various neurotrophic factors, including nerve growth factor (NGF), transforming growth factor (beta), and S100B in the central nervous system; details: treatment with Neotrofin

Compound	prevention of brain damage due to neuroexcitotoxins [1]	restoration of function in animal models [2]	mRNA levels of neurotrophic factors (NGF, TGF beta, S100B) in the central nervous system [3]
O=C(CCn1cnc2c(=O)[nH]cnc21)Nc1ccc(C(=O)[O-])cc1.[K+] [Leteprinim potassium]	shown to prevent brain damage due to neuroexcitotoxins	restores function in animal models of cognitive decline, aging, neuroprotection, and spinal cord injury	–
O=C(CCn1cnc2c(=O)[nH]cnc21)Nc1ccc(C(=O)[O-])cc1.[K+] [Neotrofin]	–	–	elevated the mRNA levels of various neurotrophic factors
